Reference: ChEMBL document CHEMBL1135253, “Formation of thomasidioic acid from dehydrosinapinic acid dilactone under neutral conditions, and a remaining inhibitory activity against peroxynitrite-mediated protein nitration” (Bioorg Med Chem Lett, 2002)

How the values were obtained:
[1] = Inhibitory activity of compound was tested against peroxinitrite of collagen type I with concentration 50 uM of each sample was treated with 1.0 mM peroxynitrite
[2] = Inhibitory activity of compound was tested against peroxinitrite in collagen type I with concentration 50 uM of each sample was treated with 1.0 mM peroxynitrite
[3] = Inhibitory activity of compound was tested against peroxinitrite in collagen type I at concentration 100 uM of each sample was treated with 1.0 mM peroxynitrite

Row | Activity [1] | Activity [2] | Activity [3] | Structure (SMILES)
1 | 0.7 |  |  | COc1cc([C@H]2c3c(cc(OC)c(O)c3OC)C=C(C(=O)O)[C@@H]2C(=O)O)cc(OC)c1O
2 |  | 0.25 |  | COc1cc(/C=C(C(=O)O)\C(=C/c2cc(OC)c(O)c(OC)c2)C(=O)O)cc(OC)c1O
3 |  | 1 | 0.3 | COc1cc(/C=C/C(=O)O)cc(OC)c1O
